Data taken from patent publication US6790608B2, “Methods of identifying and ADP-glucose receptor ligand, agonist or antagonist” (The Regents of the University of California, priority 2000, dated 2004).
Entries after “also recorded” stand apart in the source; their conditions may differ. Like-named read-outs stand apart in the source and are kept apart here.

Tests used:
[1] = target: T1, human ADP-glucose receptor (Homo sapiens, UniProt Q9H244); test: Intracellular calcium mobilization (FLIPR, Fluo4-AM) in CHO cells transiently transfected with the cloned receptor; assay type: cell-based; details: for induction of increase in intracellular Ca2+ / receptor activation: CHO cells cotransfected with receptor, Gα16 and chimeric Gαqi3; for increase in intracellular Ca2+ in untransfected cells: untransfected CHO cells
T1 construct: such that a nucleic acid molecule encoding a full-length ADP-glucose receptor can be amplified; expressed in transfected cells
Description: (§1) In order to characterize the function of the encoded receptor, the pCDNA3.1 expression construct containing the amplified receptor gene was transiently transfected into human embryonic kidney (HEK 293) cells or Chinese hamster ovary (CHO) cells. HEK 293 cells were cultured in DMEM containing 10% fetal bovine serum (FBS), and CHO cells were cultured in alpha-MEM with 5% FBS. All cells were kept at 37° C. in a 5% CO2 atmosphere.
(§2) For certain experiments, the cells were transiently cotransfected with the receptor construct and equimolar ratios of the G-protein alpha subunit Gα16 and/or the chimeric subunit […] in pCDNA3.1 (described in Saito et al., Nature 265-269 (1999)). For functional assays measuring intracellular calcium, twenty-four hours after transfection, cells were seeded into black clear-bottom 96-well plates at a density of 50,000 cells/well. Following overnight incubation the cells were loaded for 1 h with 1 μM of the fluorescent calcium indicator dye Fluo4-AM (Molecular Probes) dissolved in assay buffer containing Hank's balanced salts, 20 mM HEPES, 1% FBS, 2.5 mM probenecid, pH 7.4. After loading, the cells were washed three times with assay buffer without FBS. Addition of drugs and measurement of changes in intracellular calcium were performed using a fluorimetric imaging plate reader (FLIPR, Molecular Devices). Agonist responses were determined using the maximum change in fluorescence over baseline.
To enforce coupling of the novel receptor to the phospholipase C pathway, CHO cells were transiently cotransfected with expression constructs containing the amplified receptor DNA, Gα16 and a chimeric Gαq subunit carrying the C-terminal tail of Gαi3.
Dose-response curves were calculated using GraphPad Prism (GraphPad Software Inc.).
In order to determine the preferential G-protein coupling of the ADP-glucose receptor, mobilization of [Ca^2+]i was examined in CHO cells expressing either the receptor alone or in combination with either Gα16 or Gαqi3.

[2] = test system: endogenous ADP-glucose receptor in HEK 293 cells; test: Intracellular calcium mobilization (FLIPR, Fluo4-AM) in HEK 293 cells; assay type: cell-based, human
Description: as §1, §2
The ADP-glucose receptor construct was also expressed in HEK 293 cells.

guinea pig ileum = test: Isometric contractions of guinea pig ileal segments in organ bath
Description: Ileal segments (about 2 cm) were prepared from male guinea pigs euthanized by asphyxiation with CO2 and mounted in an organ bath filled with Krebs-Ringer bicarbonate (KRB) buffer as described in Thomas et al., Mol. Pharmacol. 44:102-110 (1993). Isometric contractions of the preparations were measured with a force transducer and recorded on a polygraph (Grass Instruments). The contractile responses are expressed as the mass (g) required to generate the measured force. For contractile measurements of field-stimulations, ilea were mounted between platinum ring electrodes connected to a stimulator (Grass SD9). Ilea were electrically stimulated (40 mV, 8 ms duration, 0.2 Hz) for 5 min followed by a resting period of 8-10 min.
Drugs were diluted in KRB and added directly to the bath. For intraluminal drug application a polyethylene tube (I.D.: 2 mm; length: 1.2 cm) was inserted about 3 mm deep into the ileum and fixed with a surgical thread. The other end of the preparation was closed tightly by a thread. The intubated ilea were mounted in the organ bath in such a way that the open end of the polyethylene tube was extending above the buffer surface. Drugs were administered to the ileal lumen using a Hamilton syringe. After each incubation, ilea were washed three times with KRB and allowed to equilibrate for at least 10 min. For some experiments ilea were removed from animals that had been treated with 100 μg/kg pertussis toxin three days prior to the experiment. Dose response curves were obtained in separate experiments for each drug concentration tested in duplicate and EC50 values were calculated using GraphPad Prism.
However, due to the irregular nature of these contractions it was not possible to study dose-response relationships of pharmacological agents in such a preparation. Therefore, field-stimulation was used to elicit contractions that are known to be mediated by neuronal release of acetylcholine activating M3 muscarinic receptors (Cowie et al., Brit. J. Pharmacol. 64:565-580 (1978); Kilbinger et al., Eur. J. Pharmacol. 103:313-320 (1984)).

rat arterial tissues = test: Contraction of precontracted rat arterial rings in organ bath; details: for EC50: read-out: EC50 of relaxation
Description: Rat arterial tissues were prepared as described previously (Duckles, S. P., J. Pharmacol. Exp. Ther. 240: 697-700 (1987); Sara Sangha et al., J. Appl. Physiol. 88: 507-517 (2000)). Briefly, male Wistar rats (250 g) were sacrificed by decapitation. The thoracic and abdominal aorta and the carotid artery were immediately removed and cleaned of adhering tissue. Arteries were cut into rings (about 3 mm in length) and mounted into an organ bath filled with Kreb-Ringer-bicarbonate buffer at 37° C. (buffer composition: 119.2 mM NaCl, 25 mM NaHCO3, 4.9 mM KCl, 1.2 mM MgSO4, 11.1 mM glucose, 0.114 mM ascorbic acid, pH 7.4). The buffer was aerated by bubbling with 95% O2:5% CO2. Arterial rings were connected to a force transducer and isometric contractions of the preparations were recorded using MacLab. The contractile responses are expressed as the mass (g) required to generate the measured force. The arterial preparations were equilibrated for one hour at a resting force of 2 g and then challenged several times with 100 mM KCl to establish a baseline.
To determine the effect of ADP-glucose on evoked contractions, arterial rings were precontracted with either 0.3 μM phenylephrine or 0.3 μM serotonin. ADP-glucose was subsequently added to the arterial rings in a cumulative manner to establish a dose-response relationship between ADP-glucose concentration and arterial ring contraction. At the end of each experiment, residual constriction was reversed by the addition of 1 μM acetylcholine. Each arterial preparation was tested in triplicate with each cumulative dosage scheme carried out at least twice. Data are expressed as means±S.E.M. and dose-response curves were calculated with Prism (GraphPad, San Diego).

isolated frog heart = details: cyclic perfusion; cited from earlier work
unanesthetised frogs = details: systemic administration; cited from earlier work
[3] = CHO cells transiently transfected with receptor construct together with Gα16 and Gαqi3, read-out: EC50 of transient increase in [Ca2+]i
[4] = untransfected HEK 293 cells, endogenous receptor, read-out: EC50 of [Ca2+]i increase
[5] = carotid arteries, serotonin-induced constrictions

T1 sequence (Q9H244 whole entry): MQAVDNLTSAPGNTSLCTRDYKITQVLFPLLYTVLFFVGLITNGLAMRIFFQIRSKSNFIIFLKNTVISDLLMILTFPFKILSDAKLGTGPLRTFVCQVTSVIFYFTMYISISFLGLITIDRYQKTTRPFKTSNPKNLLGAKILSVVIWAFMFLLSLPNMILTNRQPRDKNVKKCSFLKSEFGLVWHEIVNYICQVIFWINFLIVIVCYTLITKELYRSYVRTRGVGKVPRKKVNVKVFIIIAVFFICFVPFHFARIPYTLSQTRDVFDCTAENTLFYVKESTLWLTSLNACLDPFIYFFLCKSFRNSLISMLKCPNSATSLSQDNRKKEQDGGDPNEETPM

## Nc1ncnc2c1ncn2[C@@H]1O[C@H](COP(=O)(O)OP(=O)(O)O[C@H]2O[C@H](CO)[C@@H](O)[C@H](O)[C@H]2O)[C@@H](O)[C@H]1O [ADP-glucose, adenosine 5′-diphosphoglucose]
[1]; CHO cells cotransfected with receptor and Gαqi3, read-out: EC50 of [Ca2+]i mobilization
  EC50: 8.2 ± 1.3 µM
[1]
  induction of increase in intracellular Ca2+ / receptor activation: induced a dose-dependent and transient increase
  increase in intracellular Ca2+ in untransfected cells: not in untransfected cells
[1]; CHO cells expressing receptor alone, read-out: EC50 of [Ca2+]i mobilization
  EC50: 24 ± 4.1 µM
[1]; [3]
  EC50: 2.98 ± 0.22 µM
[1]; CHO cells, receptor with Gα16, read-out: EC50 of [Ca2+]i mobilization
  EC50: 11.8 ± 2.4 µM
[2]
  [Ca2+]i response in HEK 293 cells: strong mobilization of [Ca^2+]i
[2]; HEK 293 cells transiently cotransfected with cloned receptor and Gα16, read-out: EC50 of intracellular Ca2+ release
  EC50: 2.5 ± 0.82 µM
[2]; [4]
  EC50: 2.9 ± 0.51 µM
Guinea pig ileum; contractions produced by 0.3 μM histamine
  maximal inhibition of histamine-evoked contractions: 60%
Guinea pig ileum; contractions produced by 0.3 μM histamine, read-out: EC50 of inhibition of histamine-evoked contractions
  EC50: 6.2 ± 1.8 µM
Guinea pig ileum; field-stimulated, untreated ileum, read-out: EC50 of inhibition of electrically evoked contractions
  EC50: 6.64 ± 0.4 µM
Guinea pig ileum; ileum from pertussis toxin treated animals
  maximal inhibition of electrically evoked contractions: 40%
Guinea pig ileum; ileum from pertussis toxin treated animals, read-out: EC50 of inhibition of electrically evoked contractions
  EC50: 35.5 ± 5.5 µM
Guinea pig ileum; ileum punctured to release intraluminal content into the bath
  effect on electrically-evoked contractions: strong inhibition
Guinea pig ileum; intraluminal administration
  effect on field-stimulated contractions: no effect
Guinea pig ileum; maximally effective concentrations, untreated ileum
  maximal inhibition of electrically evoked contractions: 90%
Guinea pig ileum; muscarinic agonist oxotremorine M
  effect on contractions produced by oxotremorine M: unaffected
Guinea pig ileum; spontaneous contractions, ileum preparations
  effect on spontaneous contractions: inhibition of spontaneous contractions
Rat arterial tissues; abdominal aorta, precontracted with 0.3 μM phenylephrine
  EC50: 6.67 ± 1.8 µM
Rat arterial tissues; abdominal aorta, precontracted with 0.3 μM serotonin
  EC50: 3.26 ± 0.12 µM
Rat arterial tissues; abdominal aorta, serotonin-precontracted
  maximal relaxation: about 80%
Rat arterial tissues; [5]
  maximal relaxation: 40%
  EC50: 20.5 ± 6.3 µM
Rat arterial tissues; carotid artery, precontracted with 0.3 μM phenylephrine
  EC50: 3.1 ± 0.3 µM
Rat arterial tissues; phenylephrine-precontracted, highest concentration tested, all three tissues
  maximal relaxation: 40%-50%
Rat arterial tissues; thoracic aorta, precontracted with 0.3 μM phenylephrine
  EC50: 13.8 ± 2.8 µM
Rat arterial tissues; thoracic aorta, serotonin-precontracted
  response of serotonin-precontracted thoracic aorta: unresponsive
Rat arterial tissues; untreated arterial tissue at resting force
  effect on untreated arterial tissue: no effect

## Nc1ncnc2c1ncn2[C@@H]1O[C@H](COP(=O)(O)OP(=O)(O)O[C@H]2O[C@H](CO)[C@@H](O)[C@H](O)[C@@H]2O)[C@@H](O)[C@H]1O [ADP-mannose]
[1]
  induction of increase in intracellular Ca2+ / receptor activation: only ADP-glucose and ADP-ribose induced a dose-dependent and transient increase; also recorded: unable to activate the receptor

## Nc1ncnc2c1ncn2[C@@H]1O[C@H](COP(=O)(O)OP(=O)(O)OC[C@H]2OC(O)[C@H](O)[C@@H]2O)[C@@H](O)[C@H]1O (stereo partly shown) [ADP-ribose]
[1]
  induction of increase in intracellular Ca2+ / receptor activation: partial agonist; also recorded: induced a dose-dependent and transient increase
  increase in intracellular Ca2+ in untransfected cells: not in untransfected cells
[1]; [3]
  EC50: 59.4 ± 7.3 µM
[2]
  [Ca2+]i response in HEK 293 cells: full agonist
[2]; [4]
  EC50: 38.7 ± 10.6 µM
Guinea pig ileum; field-stimulated ileum, drug added to bath
  effect on electrically-evoked contractions: very similar inhibitory effects
Isolated frog heart
  effect on action potential in the sinus node: decrease in the action potential duration and rate of rise in the sinus node
  effect on heart rate and contraction force: dose-dependent decrease in heart rate and contraction force
Unanesthetised frogs
  effect on heart rate: reversible increase in heart rate

## Nc1ncnc2c1ncn2[C@@H]1O[C@H](COP(=O)(O)OP(=O)(O)O)[C@@H](O)[C@H]1O [ADP]
[1]
  induction of increase in intracellular Ca2+ / receptor activation: only ADP-glucose and ADP-ribose induced a dose-dependent and transient increase

## Nc1ncnc2c1ncn2[C@@H]1O[C@H](COP(=O)(O)O)[C@@H](O)[C@H]1O [AMP]
[1]
  induction of increase in intracellular Ca2+ / receptor activation: only ADP-glucose and ADP-ribose induced a dose-dependent and transient increase

## Nc1ncnc2c1ncn2[C@@H]1O[C@H](COP(=O)(O)OP(=O)(O)OP(=O)(O)O)[C@@H](O)[C@H]1O [ATP]
[1]
  induction of increase in intracellular Ca2+ / receptor activation: only ADP-glucose and ADP-ribose induced a dose-dependent and transient increase

## Nc1ccn([C@@H]2O[C@H](COP(=O)(O)OP(=O)(O)O[C@H]3O[C@H](CO)[C@@H](O)[C@H](O)[C@H]3O)[C@@H](O)[C@H]2O)c(=O)n1 [CDP-glucose]
[1]
  induction of increase in intracellular Ca2+ / receptor activation: only ADP-glucose and ADP-ribose induced a dose-dependent and transient increase
[2]
  [Ca2+]i response in HEK 293 cells: did not respond

## Nc1nc2c(ncn2[C@@H]2O[C@H](COP(=O)(O)OP(=O)(O)O[C@H]3O[C@H](CO)[C@@H](O)[C@H](O)[C@H]3O)[C@@H](O)[C@H]2O)c(=O)[nH]1 [GDP-glucose]
[1]
  induction of increase in intracellular Ca2+ / receptor activation: only ADP-glucose and ADP-ribose induced a dose-dependent and transient increase
[2]
  [Ca2+]i response in HEK 293 cells: did not respond

## Cc1cn([C@H]2C[C@H](O)[C@@H](COP(=O)(O)OP(=O)(O)O[C@H]3O[C@H](CO)[C@@H](O)[C@H](O)[C@H]3O)O2)c(=O)[nH]c1=O [TDP-glucose]
[1]
  induction of increase in intracellular Ca2+ / receptor activation: only ADP-glucose and ADP-ribose induced a dose-dependent and transient increase
[2]
  [Ca2+]i response in HEK 293 cells: did not respond

## Nc1ncnc2c1ncn2[C@@H]1O[C@H](CO)[C@@H](O)[C@H]1O [adenosine]
[1]
  induction of increase in intracellular Ca2+ / receptor activation: only ADP-glucose and ADP-ribose induced a dose-dependent and transient increase
